# Where “and” joins values, the source holds several entries; their conditions need not be identical. Equal entries are not always repeated.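 Exposure lasted 48 hours, with cells grown in 96-well plates and compounds tested at five concentrations. The concentration for 50% growth inhibition is given as GI50. At the TGI there is no net growth.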
# Experiments:
# Experiment in all cases: NCI tumour cell line growth inhibition, 48 h
# HOP-62 NSCLC = system: HOP-62 NSCLC
# HCT-15 colon = system: HCT-15 colon
# MCF7 breast = system: MCF7 breast
# A498 renal = system: A498 renal
# NCI-H226 lung = system: NCI-H226 lung
# MDA-MB-435 = system: MDA-MB-435
# MDA-MB-231 breast = system: MDA-MB-231 breast
# UACC-257 melanoma = system: UACC-257 melanoma
# SNB-19 CNS = system: SNB-19 CNS
# MOLT-4 leukemia = system: MOLT-4 leukemia
SMILES,TGI (HOP-62 NSCLC),TGI (HCT-15 colon),TGI (MCF7 breast),TGI (A498 renal),TGI (NCI-H226 lung),TGI (MDA-MB-435) [µM],TGI (MDA-MB-231 breast) [µM],TGI (UACC-257 melanoma),TGI (SNB-19 CNS),TGI (MOLT-4 leukemia) [µM],GI50 (HOP-62 NSCLC) [µM],GI50 (HCT-15 colon) [µM],GI50 (MCF7 breast) [µM],GI50 (A498 renal) [µM],GI50 (NCI-H226 lung) [µM],GI50 (UACC-257 melanoma) [µM],GI50 (SNB-19 CNS) [µM],GI50 (MOLT-4 leukemia) [µM]
CN(C)CCNC(=O)c1ccc(Cl)c2cc3ccccc3nc12,4.6 µM,7.15 µM,3.58 µM,1.33 µM,4.7 µM,2.22,3,2.64 µM,14.3 µM,4.03,–,–,–,–,–,–,–,–
Cc1cc(N(CCC#N)CCC#N)ccc1/C=C1\SC(=S)NC1=O,> 100 µM,> 100 µM,> 100 µM,> 100 µM,> 100 µM,> 100,> 100,> 100 µM,> 100 µM,> 100,–,–,–,–,–,–,–,–
CCOC(=O)CCC(NC(=O)Cc1ccc(Oc2nc3ccccc3nc2-c2ccccc2)cc1)C(=O)OCC (stereo not drawn),> 100 µM,> 100 µM,> 100 µM,> 100 µM,78.9 µM,> 100,> 100,> 100 µM,> 100 µM,> 100,–,–,–,–,–,–,–,–
COP(=O)(O)C(N)Cc1c[nH]c2ccccc12 (stereo not drawn),> 100 µM,> 100 µM,> 100 µM,> 100 µM,> 100 µM,> 100,> 100,> 100 µM,> 100 µM,> 100,–,–,–,–,–,–,–,–
CC(=O)OC(C)(C)CCC(=O)[C@](C)(O)[C@H]1[C@H](O)C[C@@]2(C)[C@@H]3CC=C4C(C)=C(OC5OC(CO)C(O)C(O)C5O)C(=O)C[C@@H]4[C@]3(C)C(=O)C[C@]12C (stereo partly drawn),> 100 µM,> 100 µM,> 100 µM,> 100 µM,> 100 µM,> 100,> 100,> 100 µM,> 100 µM,> 100,–,–,–,–,–,–,–,–
CC(=O)Oc1cc(OC(C)=O)c2c(C)cc(=O)oc2c1,> 100 µM,> 100 µM,> 100 µM,> 100 µM,> 100 µM,> 100,> 100,> 100 µM,> 100 µM,> 100,–,–,–,–,–,–,–,–
COc1cc(OC2OC(COC(=O)c3cc(O)c(O)c(O)c3)C(O)C(O)C2O)ccc1O (stereo not drawn),> 100 µM,> 100 µM,> 100 µM,> 100 µM,> 100 µM,63.3,> 100,> 100 µM,> 100 µM,> 100,–,–,–,–,–,–,–,–
CC(=O)N(C(C)=O)n1c(Cc2ccc(C)cc2)nn(C(C)=O)c1=O,> 100 µM,> 100 µM,> 100 µM,> 100 µM,> 100 µM,> 100,> 100,> 100 µM,> 100 µM,> 100,–,–,–,–,–,–,–,–
CCCc1nnc2sc(COc3cc(Cl)c(OCc4nn5c(CCC)nnc5s4)cc3Cl)nn12,> 100 µM,> 100 µM,72.9 µM,98.4 µM,> 100 µM,> 100,> 100,> 100 µM,> 100 µM,> 100,–,–,–,–,–,–,–,–
CCOC(=O)C(NC(=O)CC)(Nc1ccc(F)c(Cl)c1)C(F)(F)F (stereo not drawn),> 100 µM,> 100 µM,> 100 µM,> 100 µM,> 100 µM,> 100,> 100,> 100 µM,> 100 µM,> 100,–,–,–,–,–,–,–,–
Cc1cc(O)cc(O)c1C(=O)O[C@]1(C)C(=O)C=C2C=C(/C=C/C(=O)O)OC=C2C1=O,> 100 µM,> 100 µM,> 100 µM,> 100 µM,> 100 µM,> 100,> 100,> 100 µM,> 100 µM,> 100,–,–,–,–,–,–,–,–
CCCC(=O)NC(Nc1ccc(F)cc1)(C(F)(F)F)C(F)(F)F,> 100 µM,> 100 µM,> 100 µM,> 100 µM,> 100 µM,> 100,> 100,> 100 µM,> 100 µM,> 100,–,–,–,–,–,–,–,–
COc1ccc([C@]23CCN4COC[C@@H]([C@H]42)C2(CC3)OCC(C)(C)CO2)cc1OC,> 100 µM,> 100 µM,> 100 µM,> 100 µM,> 100 µM,> 100,> 100,> 100 µM,> 100 µM,> 100,–,–,–,–,–,–,–,–
Cc1ccc(S(=O)(=O)n2ccc(-c3ccc4ccn(S(=O)(=O)c5ccc(C)cc5)c4c3)c2)cc1,> 100 µM,> 100 µM,> 100 µM,> 100 µM,> 100 µM,> 100,> 100,> 100 µM,> 100 µM,> 100,–,–,–,–,–,–,–,–
COC1(c2cccs2)c2ccccc2C(OC)(c2cccs2)c2ccccc21 (stereo not drawn),> 100 µM,> 100 µM,> 100 µM,83.4 µM,> 100 µM,> 100,> 100,> 100 µM,> 100 µM,> 100,–,–,–,–,–,–,–,–
NC(=Nc1ccccc1)c1ccccc1N,> 100 µM,> 100 µM,> 100 µM,> 100 µM,> 100 µM,> 100,> 100,> 100 µM,> 100 µM,> 100,–,–,–,–,–,–,–,–
COc1cc(CCN(C)C)cc(OC)c1OC,> 100 µM,> 100 µM,> 100 µM,> 100 µM,> 100 µM,> 100,> 100,> 100 µM,> 100 µM,> 100,–,–,–,–,–,–,–,–
CCN(CC)CCOC(=O)Cc1cccc2c(=O)cc(-c3ccccc3)oc12,62.5 µM and > 144 µM,62.5 µM and > 216 µM,62.5 µM and > 216 µM,62.5 µM and > 145 µM,62.5 µM and > 129 µM,62.5,57.2,62.5 µM and > 154 µM,62.5 µM and > 211 µM,62.5,25.9,82.5,46.9,40.2,50.7,67,112,3.37
O=[N+]([O-])c1cccc(Cl)c1Oc1ccc(S(=O)(=O)/N=C(\NO)Nc2ccc(Cl)cc2)cc1,45.4 µM,33.8 µM,32.2 µM,28.2 µM,44.4 µM,29.2,47.6,26 µM,30.7 µM,19.3,–,–,–,–,–,–,–,–
CCCN(CCC)C1CCc2c(ccc3cc[nH]c23)C1 (stereo not drawn),> 100 µM,> 100 µM,> 100 µM,> 100 µM,> 100 µM,> 100,> 100,81.2 µM,> 100 µM,96.7,–,–,–,–,–,–,–,–
N#CC[N+]1(Cc2ccccn2)CCCC1,> 100 µM,> 100 µM,> 100 µM,> 100 µM,> 100 µM,> 100,> 100,> 100 µM,> 100 µM,> 100,–,–,–,–,–,–,–,–
O=[N+]([O-])c1ccc(O)c(/C=N/c2nc(-c3ccccc3)cs2)c1,> 90.5 µM,> 89.7 µM,> 100 µM,> 100 µM,85.3 µM,> 100,> 100,> 100 µM,> 100 µM,43.3,–,–,–,–,–,–,–,–
CC(=O)OCCCCn1cc(Cn2ccc(=O)n(Cc3cn(CCCCOC(C)=O)nn3)c2=O)nn1,> 100 µM,> 100 µM,> 100 µM,> 100 µM,> 100 µM,> 100,> 100,> 100 µM,> 100 µM,> 100,–,–,–,–,–,–,–,–
O=C1/C(=C/c2ccccc2)NC(=S)N1CN1CCCCC1,> 100 µM,> 100 µM,> 100 µM,> 100 µM,> 100 µM,> 100,> 100,> 100 µM,> 100 µM,> 100,–,–,–,–,–,–,–,–
COc1ccc2c(c1)CCN1CCCc3ccccc3C21 (stereo not drawn),> 100 µM,> 100 µM,> 100 µM,> 100 µM,> 100 µM,52.5,> 100,> 100 µM,> 100 µM,> 100,–,–,–,–,–,–,–,–
COC12C=CC(C=C1C#N)CC2 (stereo not drawn) (tested in a mixture with another compound),> 100 µM,> 100 µM,> 100 µM,> 100 µM,> 100 µM,> 100,> 100,> 100 µM,> 100 µM,> 100,–,–,–,–,–,–,–,–

# From PubChem BioAssay (NCI)
